# In US20070071762A1, “COMPREHENSIVE DIAGNOSTIC TESTING PROCEDURES FOR PERSONALIZED ANTICANCER CHEMOTHERAPY (PAC)” (CCC Diagnostics, LLC, priority 2005, published 2007):
# Read-outs that look alike come from different tables or passages of the source.
# Legend:
# MDA-MB231 cells = conditions: MDA-MB 231 cells
# Experimental: For experimental conditions, cell suspensions containing 10^4 viable cells were plated into 96 well plates in 100 μl of media, and allowed to attach for 24 hours at 37° C. in a 5% CO2 atmosphere. After this incubation period, the cells were exposed to the drug at the designated doses, which were based on peak plasma concentration (PPC), as determined by published pharmacokinetic analyses. […] Media containing 0.5% FCS was then added to each well in order to maximize ER expression. Control wells contained 100 μl of the appropriate media and were treated identically to the test wells. At 72 hours post treatment, the plates were subjected to WST-8 analysis. WST-8 is a tetrazolium salt that is bioreduced by cellular dehydrogenases to yield a colored formazan product. The amount of the formazan product is directly proportional to the number of living cells. […] The absorbance of each well was measured at 460 nm using a Biotek microplate reader. For each concentration of drugs the mean absorbance±the SE was calculated. Results are expressed as % inhibition of growth compared with drug concentration. IC50 values will be determined using the median effect plot of (log fa/log fu) vs log C where fu=fraction unaffected, fa=fraction affected and C=drug concentration.
# SKBR-3 cells [1] = test: WST-8 growth inhibition of cultured breast cancer cells; format: cell-based, human; conditions: for IC50: Homo sapiens, SK-BR-3, 5-FU, doses ranged from 5-300 μg/ml
# Experimental: (§1) In another example, the expression of thymidylate synthase (TS) was correlated with the response of breast cancer cells to the chemotherapeutic drug 5-fluorouracil (5-FU). TS is a key enzyme in DNA biosynthesis and has been postulated to play a major role in predicting the response to 5-FU based chemotherapy. Experiments were conducted to examine this relationship. […] Doses ranged from 5-300 μg/ml.
# MCF-7 cells [2] = test: as above; format: cell-based, human; conditions: for IC50: Homo sapiens, MCF7, 5-FU, doses ranged from 5-300 μg/ml
# Experimental: as §1
# SKBR-3 cells [3] = test: as above; format: cell-based; conditions: Homo sapiens, SK-BR-3, 72 hours post treatment
# HCC 2218 cells = test: as above; format: cell-based, human; conditions: for IC50: Homo sapiens
# Experimental: as §1
# HCC 38 cells = test: as above; format: cell-based, human; conditions: for IC50: Homo sapiens
# Experimental: as §1
# T47D cells = test: as above; format: cell-based, human; conditions: for IC50: Homo sapiens
# Experimental: as §1
# HCC 202 cells = test: as above; format: cell-based, human; conditions: for IC50: Homo sapiens
# Experimental: as §1
# MCF-7 cells [4] = test: as above; format: cell-based; conditions: Homo sapiens, 72 hours post treatment
smiles,measurement,setting,value
"CC/C(=C(\c1ccccc1)c1ccc(OCCN(C)C)cc1)c1ccccc1 [Tamoxifen, tamoxifen]",biological response to drug treatment (in words),MDA-MB231 cells,much less sensitive response
same,biological response to drug treatment (in words),SKBR-3 cells [1],much less sensitive response
same,biological response to drug treatment (in words),MCF-7 cells [2],high sensitivity
"CC(=O)O[C@@]12CO[C@@H]1C[C@H](O)[C@@]1(C)C(=O)[C@H](O)C3=C(C)[C@@H](OC(=O)[C@H](O)[C@@H](NC(=O)OC(C)(C)C)c4ccccc4)C[C@@](O)([C@@H](OC(=O)c4ccccc4)[C@H]21)C3(C)C [Docetaxel, docetaxel]",IC50,"SKBR-3 cells [3]; Docetaxel, SKBR3 cells, read-out: IC50-1",6.6 µg/mL
same,IC50,"SKBR-3 cells [3]; Docetaxel, SKBR3 cells, read-out: IC50-2",12.5 µg/mL
same,biological response to drug treatment (in words),SKBR-3 cells [1],sensitive
same,biological response to drug treatment (in words),HCC 2218 cells; HCC 2218 cells,response only to higher doses
same,IC50,"HCC 2218 cells; HCC2218, Docetaxel, HCC 2218 cells, 72 hours post treatment, read-out: IC50-1",25 µg/mL
same,IC50,"HCC 2218 cells; HCC2218, Docetaxel, HCC 2218 cells, 72 hours post treatment, read-out: IC50-2",18 µg/mL
same,biological response to drug treatment (in words),HCC 38 cells; HCC 38 cells,response only to higher doses
same,IC50,"HCC 38 cells; Docetaxel, HCC38 cells, 72 hours post treatment, read-out: IC50-1",58 µg/mL
same,IC50,"HCC 38 cells; Docetaxel, HCC38 cells, 72 hours post treatment, read-out: IC50-2",59.9 µg/mL
same,biological response to drug treatment (in words),MCF-7 cells [2],sensitive
same,biological response to drug treatment (in words),T47D cells,sensitive
same,IC50,"T47D cells; Docetaxel, 72 hours post treatment, read-out: IC50-1",5.5 µg/mL
same,IC50,"T47D cells; Docetaxel, 72 hours post treatment, read-out: IC50-2",4.5 µg/mL
same,biological response to drug treatment (in words),HCC 202 cells; HCC 202 cells,resistant
same,IC50,"HCC 202 cells; Docetaxel, HCC202 cells, 72 hours post treatment, read-out: IC50-1",25.5 µg/mL
same,IC50,"HCC 202 cells; Docetaxel, HCC202 cells, 72 hours post treatment, read-out: IC50-2",22 µg/mL
same,IC50,"MCF-7 cells [4]; MCF7, Docetaxel, read-out: IC50-1",1 µg/mL
same,IC50,"MCF-7 cells [4]; MCF7, Docetaxel, read-out: IC50-2",0.8 µg/mL
"O=c1[nH]cc(F)c(=O)[nH]1 [5 Fluorouracil, 5-fluorouracil]",biological response to drug treatment (in words),SKBR-3 cells [1],responding to lower doses
same,IC50,SKBR-3 cells [1]; read-out: IC50-1 FU,23.3 µg/mL
same,IC50,SKBR-3 cells [1]; read-out: IC50-2 FU,33.7 µg/mL
same,biological response to drug treatment (in words),HCC 2218 cells; HCC 2218 cells,responded only to higher doses
same,IC50,"HCC 2218 cells; HCC2218, 5-FU, HCC 2218 cells, doses ranged from 5-300 μg/ml, read-out: IC50-1 FU",246 µg/mL
same,biological response to drug treatment (in words),HCC 38 cells; HCC 38 cells,responded only to higher doses
same,IC50,"HCC 38 cells; HCC38, 5-FU, HCC 38 cells, doses ranged from 5-300 μg/ml, read-out: IC50-1 FU",216 µg/mL
same,biological response to drug treatment (in words),MCF-7 cells [2],responding to lower doses
same,IC50,MCF-7 cells [2]; read-out: IC50-1 FU,10 µg/mL
same,IC50,MCF-7 cells [2]; read-out: IC50-2 FU,15.2 µg/mL
same,biological response to drug treatment (in words),T47D cells,responding to lower doses
same,IC50,"T47D cells; 5-FU, doses ranged from 5-300 μg/ml, read-out: IC50-1 FU",8.64 µg/mL
same,IC50,"T47D cells; 5-FU, doses ranged from 5-300 μg/ml, read-out: IC50-2 FU",6.72 µg/mL
same,biological response to drug treatment (in words),HCC 202 cells; HCC 202 cells,responded only to higher doses
same,IC50,"HCC 202 cells; HCC202, 5-FU, HCC 202 cells, doses ranged from 5-300 μg/ml, read-out: IC50-1 FU",181 µg/mL
same,IC50,"HCC 202 cells; HCC202, 5-FU, HCC 202 cells, doses ranged from 5-300 μg/ml, read-out: IC50-2 FU",162 µg/mL
"CC(=O)O[C@H]1C(=O)[C@@]2(C)[C@H]([C@H](OC(=O)c3ccccc3)[C@]3(O)C[C@H](OC(=O)[C@H](O)[C@@H](NC(=O)c4ccccc4)c4ccccc4)C(C)=C1C3(C)C)[C@]1(OC(C)=O)CO[C@@H]1C[C@@H]2O [Paclitaxel, paclitaxel]",IC50,"SKBR-3 cells [3]; Paclitaxel, SKBR-3 cells, read-out: IC50-1",10 µg/mL
same,IC50,"SKBR-3 cells [3]; Paclitaxel, SKBR-3 cells, read-out: IC50-2",8.5 µg/mL
same,biological response to drug treatment (in words),SKBR-3 cells [1],sensitive
same,biological response to drug treatment (in words),HCC 2218 cells; HCC 2218 cells,"displayed a response to PTX, but did not express an IC50 value"
same,IC50,"HCC 2218 cells; Paclitaxel, HCC2218 cells, 72 hours post treatment, read-out: IC50-1",> 50 µg/mL
same,IC50,"HCC 2218 cells; Paclitaxel, HCC2218 cells, 72 hours post treatment, read-out: IC50-2",> 50 µg/mL
same,biological response to drug treatment (in words),HCC 38 cells; HCC 38 cells,"displayed a response to PTX, but did not express an IC50 value"
same,IC50,"HCC 38 cells; HCC38, Paclitaxel, HCC 38 cells, 72 hours post treatment, read-out: IC50-1",> 50 µg/mL
same,IC50,"HCC 38 cells; HCC38, Paclitaxel, HCC 38 cells, 72 hours post treatment, read-out: IC50-2",> 50 µg/mL
same,biological response to drug treatment (in words),MCF-7 cells [2],sensitive
same,biological response to drug treatment (in words),T47D cells,sensitive
same,IC50,"T47D cells; Paclitaxel, 72 hours post treatment, read-out: IC50-1",3 µg/mL
same,IC50,"T47D cells; Paclitaxel, 72 hours post treatment, read-out: IC50-2",3.6 µg/mL
same,biological response to drug treatment (in words),HCC 202 cells; HCC 202 cells,resistant
same,IC50,"HCC 202 cells; HCC202, Paclitaxel, HCC 202 cells, 72 hours post treatment, read-out: IC50-1",> 50 µg/mL
same,IC50,"HCC 202 cells; HCC202, Paclitaxel, HCC 202 cells, 72 hours post treatment, read-out: IC50-2",> 50 µg/mL
same,IC50,"MCF-7 cells [4]; MCF7, Paclitaxel, read-out: IC50-1",6 µg/mL
same,IC50,"MCF-7 cells [4]; MCF7, Paclitaxel, read-out: IC50-2",7.1 µg/mL
